Earlier results on 3 molecules are cited in article PMC12067266 (Proceedings of the National Academy of Sciences of the …, 2025).

The test system of this series is KCa3.1. As to conditions: read-out: KCa3.1 IC50; ref [21]–[23], [49], [50].

A word on the IC50: it is the concentration that gives 50% inhibition. In the case of `Clc1ccccc1C(c1ccccc1)(c1ccccc1)n1cccn1` [TRAM-34], the IC50 was […].
Turning to `O=C1CSc2ccccc2N1Cc1cccc(C(F)(F)F)c1` [NS6180], the IC50 is 9 nM.
For the molecule `NC(=O)C(c1ccccc1)(c1ccc(F)cc1)c1ccc(F)cc1` [Senicapoc], the IC50 was 11 nM.
